Experimental data reported in ChEMBL document CHEMBL4004838, “Design and synthesis of novel phenyl -1, 4-beta-carboline-hybrid molecules as potential anticancer agents” (Eur J Med Chem, 2017).

Columns and labels:
Format in all cases: functional
CCRF-CEM = assay: Growth inhibition of human CCRF-CEM cells incubated for 48 hrs by sulforhodamine B assay
NCI-H460 = assay: Growth inhibition of human NCI-H460 cells incubated for 48 hrs by sulforhodamine B assay; conditions: NCI-H460, 48 h
NCI-H522 = assay: Growth inhibition of human NCI-H522 cells incubated for 48 hrs by sulforhodamine B assay; conditions: NCI-H522, 48 h
SNB-19 [1] = assay: Growth inhibition of human SNB19 cells incubated for 48 hrs by sulforhodamine B assay; conditions: SNB-19, 48 h
RXF 393 = assay: Growth inhibition of human RXF393 cells incubated for 48 hrs by sulforhodamine B assay; conditions: RXF 393, 48 h
UO-31 [2] = assay: Growth inhibition of human UO31 cells incubated for 48 hrs by sulforhodamine B assay; conditions: UO-31, 48 h
MDA-MB-231 [3] = assay: Growth inhibition of human MDA-MB-231 cells incubated for 48 hrs by sulforhodamine B assay; conditions: MDA-MB-231, 48 h
HT-29 = assay: Growth inhibition of human HT-29 cells assessed as cell growth at 0.01 uM incubated for 48 hrs by sulforhodamine B assay relative to control; conditions: HT-29, 48 h, read-out: Activity
SF-539 [4] = assay: Growth inhibition of human SF539 cells assessed as cell growth at 0.01 uM incubated for 48 hrs by sulforhodamine B assay relative to control; conditions: SF-539, 48 h, read-out: Activity
786-0 [5] = assay: Growth inhibition of human 786-0 cells assessed as cell growth at 0.01 uM incubated for 48 hrs by sulforhodamine B assay relative to control; conditions: 786-0, 48 h, read-out: Activity
MDA-MB-231 [6] = assay: Growth inhibition of human MDA-MB-231 cells assessed as cell growth at 0.01 uM incubated for 48 hrs by sulforhodamine B assay relative to control; conditions: MDA-MB-231, 48 h, read-out: Activity
SF-539 [7] = assay: Growth inhibition of human SF539 cells assessed as cell growth at 0.1 uM incubated for 48 hrs by sulforhodamine B assay relative to control; conditions: SF-539, 48 h, read-out: Activity
SNB-19 [8] = assay: Growth inhibition of human SNB19 cells assessed as cell growth at 0.1 uM incubated for 48 hrs by sulforhodamine B assay relative to control; conditions: SNB-19, 48 h, read-out: Activity
U-251 = assay: Growth inhibition of human U251 cells assessed as cell growth at 0.1 uM incubated for 48 hrs by sulforhodamine B assay relative to control; conditions: U-251, 48 h, read-out: Activity
Malme-3M = assay: Growth inhibition of human MALME-3M cells assessed as cell growth at 0.1 uM incubated for 48 hrs by sulforhodamine B assay relative to control; conditions: read-out: Activity
M14 = assay: Growth inhibition of human M14 cells assessed as cell growth at 0.1 uM incubated for 48 hrs by sulforhodamine B assay relative to control; conditions: M14, 48 h, read-out: Activity
786-0 [9] = assay: Growth inhibition of human 786-0 cells assessed as cell growth at 0.1 uM incubated for 48 hrs by sulforhodamine B assay relative to control; conditions: 786-0, 48 h, read-out: Activity
ACHN = assay: Growth inhibition of human ACHN cells assessed as cell growth at 0.1 uM incubated for 48 hrs by sulforhodamine B assay relative to control; conditions: read-out: Activity
UO-31 [10] = assay: Growth inhibition of human UO31 cells assessed as cell growth at 0.1 uM incubated for 48 hrs by sulforhodamine B assay relative to control; conditions: UO-31, 48 h, read-out: Activity
MCF7 = assay: Growth inhibition of human MCF7 cells assessed as cell growth at 0.1 uM incubated for 48 hrs by sulforhodamine B assay relative to control; conditions: MCF7, 48 h, read-out: Activity
MDA-MB-231 [11] = assay: Growth inhibition of human MDA-MB-231 cells assessed as cell growth at 0.1 uM incubated for 48 hrs by sulforhodamine B assay relative to control; conditions: MDA-MB-231, 48 h, read-out: Activity
SR = assay: Growth inhibition of human SR cells assessed as cell growth at 1 uM incubated for 48 hrs by sulforhodamine B assay relative to control; conditions: read-out: Activity
A549 = assay: Growth inhibition of human A549/ATCC cells assessed as cell growth at 1 uM incubated for 48 hrs by sulforhodamine B assay relative to control; conditions: A549, 48 h, read-out: Activity
NCI-H23 = assay: Growth inhibition of human NCI-H23 cells assessed as cell growth at 1 uM incubated for 48 hrs by sulforhodamine B assay relative to control; conditions: NCI-H23, 48 h, read-out: Activity
COLO 205 = assay: Growth inhibition of human COLO205 cells assessed as cell growth at 1 uM incubated for 48 hrs by sulforhodamine B assay relative to control; conditions: COLO 205, 48 h, read-out: Activity
HCT-116 = assay: Growth inhibition of human HCT116 cells assessed as cell growth at 1 uM incubated for 48 hrs by sulforhodamine B assay relative to control; conditions: HCT-116, 48 h, read-out: Activity
LOX IMVI = assay: Growth inhibition of human LOXIMVI cells assessed as cell growth at 1 uM incubated for 48 hrs by sulforhodamine B assay relative to control; conditions: read-out: Activity
OVCAR-5 = assay: Growth inhibition of human OVCAR5 cells assessed as cell growth at 1 uM incubated for 48 hrs by sulforhodamine B assay relative to control; conditions: OVCAR-5, 48 h, read-out: Activity
SK-OV-3 = assay: Growth inhibition of human SKOV3 cells assessed as cell growth at 1 uM incubated for 48 hrs by sulforhodamine B assay relative to control; conditions: SK-OV-3, 48 h, read-out: Activity
UO-31 [12] = assay: Growth inhibition of human UO31 cells assessed as cell growth at 1 uM incubated for 48 hrs by sulforhodamine B assay relative to control; conditions: UO-31, 48 h, read-out: Activity
[13] = read-out: LC50 (the source's name)
[14] = read-out: pLC50 (the source's name) (converted)

c1ccc2c3c([nH]c2c1)C(c1ccc(C2NCCc4c2[nH]c2ccccc42)cc1)NCC3 (racemic)
CC50 (CCRF-CEM; [13]): 1220 nM
GI50 (CCRF-CEM; read-out: pGI50 (converted)): 457 nM
CC50 (CCRF-CEM; [14]): 12300 nM
TGI (CCRF-CEM; read-out: pTGI (converted)): 2040 nM
GI50 (NCI-H460; read-out: GI50): 2210 nM
CC50 (NCI-H460; [13]): 9120 nM
TGI (NCI-H460; read-out: TGI): 4490 nM
GI50 (NCI-H460; read-out: pGI50 (converted)): 219 nM
CC50 (NCI-H460; [14]): 912 nM
TGI (NCI-H460; read-out: pTGI (converted)): 4470 nM
CC50 (NCI-H522; [13]): 5210 nM
GI50 (NCI-H522; read-out: pGI50 (converted)): 417 nM
CC50 (NCI-H522; [14]): 5250 nM
TGI (NCI-H522; read-out: pTGI (converted)): 1480 nM
GI50 (SNB-19 [1]; read-out: GI50): 1730 nM
CC50 (SNB-19 [1]; [13]): 7250 nM
TGI (SNB-19 [1]; read-out: TGI): 3540 nM
GI50 (SNB-19 [1]; read-out: pGI50 (converted)): 1740 nM
CC50 (SNB-19 [1]; [14]): 7240 nM
TGI (SNB-19 [1]; read-out: pTGI (converted)): 3550 nM
GI50 (RXF 393; read-out: GI50): 1310 nM
CC50 (RXF 393; [13]): 5450 nM
TGI (RXF 393; read-out: TGI): 2670 nM
GI50 (RXF 393; read-out: pGI50 (converted)): 1320 nM
CC50 (RXF 393; [14]): 5500 nM
TGI (RXF 393; read-out: pTGI (converted)): 2690 nM
GI50 (UO-31 [2]; read-out: GI50): 1040 nM
CC50 (UO-31 [2]; [13]): 4920 nM
TGI (UO-31 [2]; read-out: TGI): 2260 nM
GI50 (UO-31 [2]; read-out: pGI50 (converted)): 1050 nM
CC50 (UO-31 [2]; [14]): 4900 nM
TGI (UO-31 [2]; read-out: pTGI (converted)): 2240 nM
GI50 (MDA-MB-231 [3]; read-out: GI50): 2960 nM
CC50 (MDA-MB-231 [3]; [13]): 3640 nM
TGI (MDA-MB-231 [3]; read-out: TGI): 9360 nM
GI50 (MDA-MB-231 [3]; read-out: pGI50 (converted)): 295 nM
CC50 (MDA-MB-231 [3]; [14]): 3630 nM
growth at 0.01 µM (HT-29): 104%
growth at 0.01 µM (SF-539 [4]): 93%
growth at 0.01 µM (786-0 [5]): 96%
growth at 0.01 µM (MDA-MB-231 [6]): 97%
growth at 0.1 µM (SF-539 [7]): 95%
growth at 0.1 µM (SNB-19 [8]): 99%
growth at 0.1 µM (U-251): 97%
growth at 0.1 µM (Malme-3M): 89%
growth at 0.1 µM (M14): 94%
growth at 0.1 µM (786-0 [9]): 103%
growth at 0.1 µM (ACHN): 97%
growth at 0.1 µM (UO-31 [10]): 74%
growth at 0.1 µM (MCF7): 90%
growth at 0.1 µM (MDA-MB-231 [11]): 97%
growth at 1 µM (SR): 36%
growth at 1 µM (A549): 56%
growth at 1 µM (NCI-H23): 85%
growth at 1 µM (COLO 205): 48%
growth at 1 µM (HCT-116): 81%
growth at 1 µM (LOX IMVI): 48%
growth at 1 µM (OVCAR-5): 85%
growth at 1 µM (SK-OV-3): 90%
growth at 1 µM (UO-31 [12]): 52%
